# From US10894798B2, “Substituted dihydropyrrolopyrazole derivative” (UBE INDUSTRIES, LTD., priority 2015, dated 2021)
# Assays:
# [1] = biological target: T1, PLK1 (Homo sapiens, UniProt P53350); experiment: PLK1 enzyme (polo-like kinase) inhibition test; assay type: biochemical; conditions: [γ-33P]ATP, casein substrate; Ki=IC50/(1+S/Km); read-out: Ki value of PLK1 inhibitory activity
# T1 construct: purchased Carna Biosciences, Inc. 05-157
# Protocol: The preparation of a buffer solution was performed by mixing a 3-morpholinopropanesulfonic acid buffer solution (MOPS buffer solution) (pH 7.0), dithiothreitol (DTT), and magnesium acetate (Mg(CH3COO)2). A 1 mM [γ-^33P]ATP solution was used by diluting a 10 mM ATP solution and a commercially available [γ-^33P]ATP solution (manufactured by Perkin Elmer, Inc., Code No. NEG-302H) with the buffer solution. A PLK1 solution was used by diluting commercially available PLK1 (manufactured by Carna Biosciences, Inc., Catalog No. 05-157) with the buffer solution. A substrate solution was used by diluting casein with the buffer solution. As for the preparation of a reaction solution, the buffer solution, the 500 μM [γ-^33P]ATP solution, the PLK1 solution, and the substrate solution were mixed at 4° C. to obtain a reaction solution.
# (§1) PLK1 enzyme reaction was performed by adding 5 μL of a test compound solution prepared with 10% DMSO/90% injectable distilled water, and 45 μL of the reaction solution in a 1.5 mL microtube at 4° C. and reacting in the microtube at 30° C. for 20 minutes in a water bath incubator. After the reaction, a 10% aqueous trichloroacetic acid (TCA) solution was added to each microtube while cooled to 4° C., and mixed in a vortex mixer to terminate the reaction. The resultant was left standing at 4° C. for 10 minutes and then centrifuged, and the supernatant was discarded. Next, a 2% aqueous trichloroacetic acid (TCA) solution was added thereto, mixed in a vortex mixer, and then centrifuged, and the supernatant was discarded. This washing operation was performed twice. After the washing, precipitates were dissolved in a 1 N aqueous sodium hydroxide (NaOH) solution, and the energy quantity (radioactivity) of the reaction product was measured with a liquid scintillation counter.
# The calculation of the inhibitory activity of the test compound against PLK1 was performed as a test compound concentration inhibiting 50% of the amount of ^33P bound to casein (IC50 value) by using EXSUS (version 8.1.0, manufactured by CAC Exicare Corp.).
# (§2) The calculation of a Ki value was performed according to the following calculation expression wherein S represents the concentration of ATP contained in the reaction solution, and Km represents a Michaelis-Menten constant: Ki=IC50/(1+S/Km)
# [2] = biological target: T2, CDK2 (Homo sapiens, UniProt P24941); experiment: CDK2 enzyme inhibition test; assay type: biochemical; conditions: [γ-33P]ATP, MBP substrate; Ki=IC50/(1+S/Km); read-out: Ki value of CDK2 inhibitory activity
# T2 construct: purchased Invitrogen Corp. PV3267
# Protocol: The preparation of a buffer solution was performed by mixing a N-2-hydroxyethylpiperazine-N′-2-ethanesulfonic acid buffer solution (HEPES buffer solution) (pH 7.4), dithiothreitol (DTT), Triton X-100, and magnesium chloride (MgCl2). A 500 μM [γ-^33P]ATP solution was used by diluting a 10 mM ATP solution and a commercially available [γ-^33P]ATP solution (manufactured by Perkin Elmer, Inc., Code No. NEG-302H) with the buffer solution. A CDK2 solution was used by diluting commercially available CDK2 (manufactured by Invitrogen Corp., Catalog No. PV3267) with the buffer solution. A substrate solution was used by diluting myelin basic protein (MBP) with the buffer solution. As for the preparation of a reaction solution, the buffer solution, the 500 μM [γ-^33P]ATP solution, the CDK2 solution, and the substrate solution were mixed at 4° C. to obtain a reaction solution.
# as §1, with “CDK2 enzyme reaction” for “PLK1 enzyme reaction”, “mixed in vortex mixer,” for “mixed in a vortex mixer,”
# The calculation of the inhibitory activity of the test compound against CDK2 was performed as a test compound concentration inhibiting 50% of the amount of ^33P bound to MBP (IC50 value) by using EXSUS (version 8.1.0, manufactured by CAC Exicare Corp.).
# as §2
# [3] = tested on: human large intestine cancer cell line (HCT-116); experiment: Human large intestine cancer (HCT-116) cell growth inhibition test; assay type: cell-based; conditions: HCT-116, 72 h, culture for 3 days, sulforhodamine B, read-out: GI50 value, HCT-116 cell growth inhibition
# Outline: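 HCT-116 cells were seeded at 0.5 to 2.0×10^3 cells/well in McCoy's 5A with 10% FBS and dosed with compound at 0.1% final DMSO after overnight culture. Growth was measured by sulforhodamine B absorbance after 3 days. GI50 was calculated from the inhibition rate at each concentration.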
# [4] = biological target: T3, CDK7 (Homo sapiens, UniProt P50613); experiment: CDK7 enzyme inhibition test; assay type: biochemical; conditions: [γ-33P]ATP, MBP substrate, 60 min preincubation at 25°C; Ki=IC50/(1+S/Km); read-out: Ki value of CDK7 inhibitory activity
# T3 construct: purchased Carna Biosciences, Inc. 04-108
# T3 sequence (P50613 whole entry): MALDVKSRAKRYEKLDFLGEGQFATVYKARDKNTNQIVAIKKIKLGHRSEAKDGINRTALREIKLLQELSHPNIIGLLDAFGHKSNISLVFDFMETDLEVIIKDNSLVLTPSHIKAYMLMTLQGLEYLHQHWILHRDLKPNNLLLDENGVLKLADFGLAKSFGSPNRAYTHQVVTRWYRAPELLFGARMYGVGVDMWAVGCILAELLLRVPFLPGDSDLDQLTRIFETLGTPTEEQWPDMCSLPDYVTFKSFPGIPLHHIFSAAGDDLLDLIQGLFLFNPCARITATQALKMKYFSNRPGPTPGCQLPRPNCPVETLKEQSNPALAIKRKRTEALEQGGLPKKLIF
# T3 sequence (P51946 whole entry partner): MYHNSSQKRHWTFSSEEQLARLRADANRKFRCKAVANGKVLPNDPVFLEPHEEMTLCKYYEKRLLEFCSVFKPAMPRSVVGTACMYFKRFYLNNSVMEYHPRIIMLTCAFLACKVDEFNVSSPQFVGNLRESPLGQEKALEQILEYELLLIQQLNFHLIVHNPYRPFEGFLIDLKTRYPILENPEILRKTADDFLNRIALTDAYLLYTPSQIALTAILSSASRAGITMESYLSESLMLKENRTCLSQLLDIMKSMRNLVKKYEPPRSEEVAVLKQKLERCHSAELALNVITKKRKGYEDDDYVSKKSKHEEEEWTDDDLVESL
# T3 sequence (P51948 whole entry partner): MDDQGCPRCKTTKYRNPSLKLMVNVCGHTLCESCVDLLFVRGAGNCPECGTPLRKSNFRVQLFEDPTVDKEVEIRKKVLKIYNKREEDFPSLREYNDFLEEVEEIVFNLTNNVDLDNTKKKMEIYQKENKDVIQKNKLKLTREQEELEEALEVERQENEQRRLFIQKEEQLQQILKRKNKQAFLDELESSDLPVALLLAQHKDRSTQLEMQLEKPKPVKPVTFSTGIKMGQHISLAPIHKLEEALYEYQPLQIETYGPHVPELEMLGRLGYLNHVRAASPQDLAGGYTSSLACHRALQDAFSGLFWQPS
# Outline: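 Commercial human CDK7 with myelin basic protein substrate in HEPES pH 7.4 buffer with DTT, Triton X-100, MgCl2; compound preincubated 60 min at 25° C, then reaction run 20 min at 30° C after adding [γ-^33P]ATP (500 μM solution). TCA-precipitated ^33P-MBP counted by scintillation; IC50 converted to Ki via Ki=IC50/(1+S/Km).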
# T1 sequence (P53350 whole entry): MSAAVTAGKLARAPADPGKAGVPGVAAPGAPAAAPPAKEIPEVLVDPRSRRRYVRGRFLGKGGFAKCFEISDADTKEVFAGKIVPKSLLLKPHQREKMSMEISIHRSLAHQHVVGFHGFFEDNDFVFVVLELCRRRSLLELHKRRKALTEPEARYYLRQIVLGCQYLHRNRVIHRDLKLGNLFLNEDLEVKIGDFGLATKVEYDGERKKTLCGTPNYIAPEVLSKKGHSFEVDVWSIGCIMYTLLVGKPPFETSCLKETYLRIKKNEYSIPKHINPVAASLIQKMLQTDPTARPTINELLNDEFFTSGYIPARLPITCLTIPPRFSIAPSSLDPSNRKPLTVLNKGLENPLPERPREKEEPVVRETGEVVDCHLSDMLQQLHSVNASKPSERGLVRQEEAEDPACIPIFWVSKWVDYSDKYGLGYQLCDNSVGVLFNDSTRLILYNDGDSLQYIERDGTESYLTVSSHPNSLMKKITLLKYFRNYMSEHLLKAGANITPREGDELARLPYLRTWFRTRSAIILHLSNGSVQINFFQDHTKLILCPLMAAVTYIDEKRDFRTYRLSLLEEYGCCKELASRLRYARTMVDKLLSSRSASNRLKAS
SMILES,Ki [1] [nM],Ki [2] [nM],GI50 [3] [nM],Ki [4] [nM]
"CC1(C)c2[nH]nc(NC(=O)C3([Si](C)(C)C)CCC3)c2CN1C(=O)Nc1ccccc1OC(F)F [IV-87, N-[2-(Difluoromethoxy)phenyl]-6,6-dimethyl-3-[1-(trimethylsilyl)cyclobutanecarboxamido]-4,6-dihydropyrrolo[3,4-c]pyrazole-5(1H)-carboxamide]",≥ 5000,≥ 1000,≤ 100,≤ 50
"CC1(C)c2[nH]nc(NC(=O)C3([Si](C)(C)C)CCC3)c2CN1C(=O)Nc1c(F)cccc1F [IV-105, N-(2,6-Difluorophenyl)-6,6-dimethyl-3-[1-(trimethylsilyl)cyclobutanecarboxamido]-4,6-dihydropyrrolo[3,4-c]pyrazole-5(1H)-carboxamide]",≥ 5000,≥ 1000,≤ 100,≤ 50
"[2H]C([2H])([2H])Oc1cccc(F)c1NC(=O)N1Cc2c(NC(=O)C3([Si](C)(C)C)CCC3)n[nH]c2C1(C)C [IV-177, N-[2-Fluoro-6-(methoxy-d3)phenyl]-6,6-dimethyl-3-[1-(trimethylsilyl)cyclobutanecarboxamido]-4,6-dihydropyrrolo[3,4-c]pyrazole-5(1H)-carboxamide]",≥ 5000,≥ 1000,≤ 100,≤ 50
"CC1(C)c2[nH]nc(NC(=O)C3([Si](C)(C)C)CCC3)c2CN1C(=O)Nc1c(F)cccc1C#N [IV-185, N-(2-Cyano-6-fluorophenyl)-6,6-dimethyl-3-[1-(trimethylsilyl)cyclobutanecarboxamido]-4,6-dihydropyrrolo[3,4-c]pyrazole-5 (1H)-carboxamide]",≥ 5000,≥ 1000,≤ 100,≤ 50
"CC1(C)c2[nH]nc(NC(=O)C3([Si](C)(C)C)CCC3)c2CN1C(=O)Nc1c(Cl)cccc1Br [IV-207, N-(2-Bromo-6-chlorophenyl)-6,6-dimethyl-3-[1-(trimethylsilyl)cyclobutanecarboxamido]-4,6-dihydropyrrolo[3,4-c]pyrazole-5 (1H)-carboxamide]",≥ 5000,≥ 1000,≤ 100,≤ 50
"CC1(C)c2[nH]nc(NC(=O)C3([Si](C)(C)C)CCC3)c2CN1C(=O)Nc1c(Cl)cccc1C1CC1 [IV-231, N-(2-Chloro-6-cyclopropylphenyl)-6,6-dimethyl-3-[1-(trimethylsilyl)cyclobutanecarboxamido]-4,6-dihydropyrrolo[3,4-c]pyrazole-5(1H)-carboxamide]",≥ 5000,≥ 1000,≤ 100,≤ 50
"CC1(C)c2[nH]nc(NC(=O)C3([Si](C)(C)C)CCC3)c2CN1C(=O)Nc1c(Cl)cccc1C(F)(F)F [IV-239, N-[2-Chloro-6-(trifluoromethyl)phenyl]-6,6-dimethyl-3-[1-(trimethylsilyl)cyclobutanecarboxamido]-4,6-dihydropyrrolo[3,4-c]pyrazole-5(1H)-carboxamide]",≥ 5000,≥ 1000,≤ 100,≤ 50
"Cc1c(F)cccc1NC(=O)N1Cc2c(NC(=O)C3([Si](C)(C)C)CCC3)n[nH]c2C1(C)C [IV-357, N-(3-Fluoro-2-methylphenyl)-6,6-dimethyl-3-[1-(trimethylsilyl)cyclobutanecarboxamido]-4,6-dihydropyrrolo[3,4-c]pyrazole-5 (1H)-carboxamide]",≥ 5000,≥ 1000,≤ 100,≤ 50
"Cc1ccc(Cl)cc1NC(=O)N1Cc2c(NC(=O)C3([Si](C)(C)C)CCC3)n[nH]c2C1(C)C [IV-367, N-(5-Chloro-2-methylphenyl)-6,6-dimethyl-3-[1-(trimethylsilyl)cyclobutanecarboxamido]-4,6-dihydropyrrolo[3,4-c]pyrazole-5 (1H)-carboxamide]",≥ 5000,≥ 1000,≤ 100,≤ 50
"Cc1ccc(NC(=O)N2Cc3c(NC(=O)C4([Si](C)(C)C)CCC4)n[nH]c3C2(C)C)c(C)c1 [IV-377, N-(2,4-Dimethylphenyl)-6,6-dimethyl-3-[1-(trimethylsilyl)cyclobutanecarboxamido]-4,6-dihydropyrrolo[3,4-c]pyrazole-5(1H)-carboxamide]",≥ 5000,≥ 1000,≤ 100,≤ 50
"Cc1cccc(C)c1NC(=O)N1Cc2c(NC(=O)C3([Si](C)(C)C)CCC3)n[nH]c2C1(C)C [IV-381, N-(2,6-Dimethylphenyl)-6,6-dimethyl-3-[1-(trimethylsilyl)cyclobutanecarboxamido]-4,6-dihydropyrrolo[3,4-c]pyrazole-5(1H)-carboxamide]",≥ 5000,≥ 1000,≤ 100,≤ 50
"Cc1ccc(F)c(NC(=O)N2Cc3c(NC(=O)C4([Si](C)(C)C)CCC4)n[nH]c3C2(C)C)c1F [IV-609, N-(2,6-Difluoro-3-methylphenyl)-6,6-dimethyl-3-[1-(trimethylsilyl)cyclobutanecarboxamido]-4,6-dihydropyrrolo[3,4-c]pyrazole-5(1H)-carboxamide]",≥ 5000,≥ 1000,≤ 100,≤ 50
"COc1cc(F)c(NC(=O)N2Cc3c(NC(=O)C4([Si](C)(C)C)CCC4)n[nH]c3C2(C)C)c(F)c1 [IV-615, N-(2,6-Difluoro-4-methoxyphenyl)-6,6-dimethyl-3-[1-(trimethylsilyl)cyclobutanecarboxamido]-4,6-dihydropyrrolo[3,4-c]pyrazole-5(1H)-carboxamide]",≥ 5000,≥ 1000,≤ 100,≤ 50
"Cc1ccc(Cl)c(NC(=O)N2Cc3c(NC(=O)C4([Si](C)(C)C)CCC4)n[nH]c3C2(C)C)c1F [IV-629, N-(6-Chloro-2-fluoro-3-methylphenyl)-6,6-dimethyl-3-[1-(trimethylsilyl)cyclobutanecarboxamido]-4,6-dihydropyrrolo[3,4-c]pyrazole-5(1H)-carboxamide]",≥ 5000,≥ 1000,≤ 100,≤ 50
